Here are results for 1 compound from ChEMBL document CHEMBL1148999, “Antimalarial agents, 2. Artesunate, an inhibitor of cytochrome oxidase activity in Plasmodium berghei” (J Nat Prod, 1986).

Molecules are shown by their SMILES. Active and inactive are the calls of the source. The calls are words filed in the database; no cut-off is given here.

Test [1] deals with Plasmodium berghei. In words: Inhibition of Plasmodium berghei trophozoite cytochrome oxidase after 30 min by osmium black staining.
In test [2] the test system is Plasmodium berghei. In words: Inhibition of cytochrome oxidase in intraerythrocytic trophozoite of Plasmodium berghei infected CF1 mice (Mus musculus) at 100 mg/kg intravenous dose. Type of test: functional, organism-based. On the set-up: dose 100 mg/kg.
Test [3] concerns Plasmodium berghei. Kind of test: Inhibition of Plasmodium berghei trophozoite cytochrome oxidase at 1 mM after 30 min by osmium black staining.
Test [4] concerns Plasmodium berghei. In words: Inhibition of Plasmodium berghei trophozoite cytochrome oxidase at 100 nM after 30 min by osmium black staining.

As to `C[C@H]1[C@H](OC(=O)CCC(=O)O)O[C@@H]2O[C@@]3(C)CC[C@H]4[C@H](C)CC[C@@H]1[C@@]24OO3`, the Activity entry in the test on Plasmodium berghei [1] was “Dose-dependent effect”. In addition, the result with Plasmodium berghei [2] and with Plasmodium berghei [3] was Active. For the same compound, the outcome in the test with Plasmodium berghei [4] was inactive.
